Results: the supplement of paper PMC10331698
± gives the standard deviation of the averaged measurements.

Experiments:
Assay in all cases: level (log10 ratio to DMSO vehicle control); higher = higher biomarker level / cell amount than vehicle control
Conditions in all cases: in DMSO
[1] = compound: FC(F)(F)C(F)(F)C(F)(F)C(F)(F)C(F)(F)C(F)(F)C(F)(F)CCI [1-Iodo-1H,1H,2H,2H-perfluorononane]
Description: (§1)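 BioMAP Diversity Plus panel of 12 human primary cell co-culture systems (3C, 4H, LPS, SAg, BT, BF4T, BE3C, CASM3C, HDF3CGF, KF3CT, MyoF, Mphg). Compounds were added 1 h before stimulation and left for 24 h (MyoF 48 h; BT 72 h for soluble read-outs or 6 d for IgG). Biomarkers were read by ELISA, cytotoxicity by SRB, PBMC viability and proliferation by Alamar Blue. Each well value was divided by the mean of 8 DMSO control wells on the same plate and log10 transformed; duplicate blinded samples were tested at 4 concentrations.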

[2] = compound: CC(C)(C)C(=O)CC(=O)C(F)(F)C(F)(F)C(F)(F)F [(Heptafluorobutanoyl)pivaloylmethane]
Description: as §1

Perfluorooctanamidine = compound: N=C(N)C(F)(F)C(F)(F)C(F)(F)C(F)(F)C(F)(F)C(F)(F)C(F)(F)F [Perfluorooctanamidine]
Description: as §1

Perfluorooctanamide = compound: NC(=O)C(F)(F)C(F)(F)C(F)(F)C(F)(F)C(F)(F)C(F)(F)C(F)(F)F [Perfluorooctanamide]
Description: as §1

[3] = compound: O=P(O)(O)CCC(F)(F)C(F)(F)C(F)(F)C(F)(F)C(F)(F)C(F)(F)C(F)(F)C(F)(F)F [((Perfluorooctyl)ethyl)phosphonic acid]
Description: as §1

[4] = compound: O=S(=O)(O)C(F)(F)C(F)(F)C(F)(F)C(F)(F)F [Perfluorobutanesulfonic acid]
Description: as §1

1-(Perfluorohexyl)octane = compound: CCCCCCCCC(F)(F)C(F)(F)C(F)(F)C(F)(F)C(F)(F)C(F)(F)F [1-(Perfluorohexyl)octane]
Description: as §1

Row | Test System | level (log10) ([1]; 6700 nM) | level (log10) ([1]; 20000 nM) | level (log10) ([2]; 6700 nM) | level (log10) ([2]; 20000 nM) | level (log10) ([2]; 60000 nM) | level (log10) (Perfluorooctanamidine; 6700 nM) | level (log10) (Perfluorooctanamidine; 20000 nM) | level (log10) (Perfluorooctanamidine; 60000 nM) | level (log10) (Perfluorooctanamide; 6700 nM) | level (log10) (Perfluorooctanamide; 20000 nM) | level (log10) (Perfluorooctanamide; 60000 nM) | level (log10) ([3]; 6700 nM) | level (log10) ([3]; 20000 nM) | level (log10) ([3]; 60000 nM) | level (log10) ([4]; 6700 nM) | level (log10) ([4]; 20000 nM) | level (log10) ([4]; 60000 nM) | level (log10) (1-(Perfluorohexyl)octane; 6700 nM) | level (log10) (1-(Perfluorohexyl)octane; 20000 nM)
1 | MyoF:TIMP-1 | -0.002 ± 0.054 | 0.0165 ± 0.042 | 0.0095 ± 0.028 | 0.0135 ± 0.06 | 0.009 ± 0.047 | 0.0185 ± 0.011 | 0.041 | 0.123 | -0.016 ± 0.014 | 0.0075 ± 0.012 | -0.0375 ± 0.0021 | 0.0415 ± 0.0078 | 0.0765 ± 0.0078 | 0.0715 ± 0.026 | 0.012 ± 0.014 | 0.009 ± 0.0085 | 0.0205 ± 0.00071 | -0.0265 ± 0.015 | -0.0465 ± 0.023
2 | MyoF:alpha-SM Actin | -0.016 ± 0.02 | -0.0435 ± 0.0035 | -0.006 ± 0.05 | -0.002 ± 0.034 | -0.0215 ± 0.0021 | 0.0015 ± 0.054 | -0.009 ± 0.042 | 0.066 | -0.0095 ± 0.005 | -0.023 ± 0.017 | -0.045 ± 0.0085 | 0.0005 ± 0.046 | -0.001 ± 0.038 | 0.004 ± 0.031 | -0.016 ± 0.0099 | -0.0265 ± 0.0078 | -0.0195 ± 0.005 | -0.0125 ± 0.032 | -0.0095 ± 0.0078
3 | MyoF:bFGF | 0.01 ± 0.0014 | 0.021 ± 0.017 | 0.002 ± 0.0028 | 0.0065 ± 0.0035 | 0.021 ± 0.0071 | -0.0085 ± 0.032 | -0.0115 ± 0.03 | 0.044 | -0.005 ± 0.0014 | -0.0055 ± 0.015 | 0.007 ± 0.0014 | -0.0245 ± 0.018 | -0.024 ± 0.018 | -0.0585 ± 0.037 | 0.0065 ± 0.013 | 0.0105 ± 0.018 | -0.0065 ± 0.0064 | -0.0025 ± 0.012 | 0.0045 ± 0.005
4 | lMphg:CCL2/MCP-1 | -0.014 ± 0.0071 | 0.0385 ± 0.032 | -0.0135 ± 0.025 | -0.018 ± 0.0071 | -0.0255 ± 0.021 | -0.03 ± 0.016 | -0.006 ± 0.0085 | 0.021 | 0.012 ± 0.013 | 0.001 ± 0.025 | -0.0235 ± 0.035 | -0.0325 ± 0.0092 | -0.059 ± 0.024 | -0.039 ± 0.04 | 0.0105 ± 0.0021 | 0.0105 ± 0.0078 | 0.0145 ± 0.025 | -0.0225 ± 0.022 | 0.0065 ± 0.025
5 | lMphg:CCL3/MIP-1alpha | -0.001 | 0.045 ± 0.033 | -0.011 ± 0.021 | -0.0185 ± 0.013 | -0.067 ± 0.11 | -0.029 ± 0.03 | 0.0015 ± 0.035 | 0.055 | -0.0155 ± 0.0064 | -0.021 ± 0.017 | -0.028 ± 0.024 | -0.0425 ± 0.026 | -0.0475 ± 0.0021 | -0.039 ± 0.0085 | -0.0305 ± 0.016 | -0.0395 ± 0.005 | -0.0135 ± 0.0092 | -0.022 ± 0.021 | 0.0035 ± 0.021
